Measured values: patent US5455248A, “Substituted 6,11-ethano-6,11-dihydrobenzo[b] quinolizinium salts, and compositions and method of use thereof” (Sterling Winthrop Inc., priority 1993, dated 1995)

Assays:
[1] = tested on: NMDA-induced neurotoxicity in cultured cortical neurons; assay: Antagonism of NMDA-induced Neurotoxicity in Cultured Neurons; assay type: cell-based, Swiss-Webster mice; settings: 500 μM NMDA for 30 minutes, LDH activity after 24 hours
Experimental: Pregnant, Swiss-Webster mice were obtained from Taconic Farms (Germantown, N.Y.) and sacrificed 16 days post conception. Fetuses were removed and placed in a sterile dish containing Hank's balanced salt solution (HBSS), pH 7.4. Brain cortices were dissected, meninges were removed, the tissue was minced and placed into a solution of HBSS containing 0.25% (w/v) trypsin at 37° C. for 15 minutes. Tissue was then triturated with a sterile pasteur pipet, diluted with minimal essential media (Gibco 330-1430), pH 7.4, supplemented with 10% horse serum, 10% fetal calf serum, 2 mM 1-glutamine, 21 mM d-glucose, 2.2 g/L sodium bicarbonate, 1000 U/ml penicillin, and 1,000 μg/ml streptomycin. Cells were plated onto Falcon primaria 96 well plates at a final density of 50,000 cells/well and incubated at 37° C. in the presence of 5% (v/v) carbon dioxide. After 5 days, plating media was replaced with maintenance media containing minimal essential media (Gibco 330-1430), pH 7.4, supplemented with 10% horse serum, […], 21 mM d-glucose, 2.2 g/1 sodium bicarbonate,1,000 U/ml penicillin, 1,000 μg/ml streptomycin, and 10 μM cytosine arabinoside. On days 7 and 10, media was replaced with maintenance media as above lacking the cytosine arabinoside. Experiments were conducted on day 13.
Day 13 cultured cortical neurons were washed twice with minimal essential media, pH 7.4 and then exposed for 30 minutes to 500 μM N-methyl-D-aspartic acid (NMDA) with or without varying concentrations of test agents. Dizocilpine (MK-801) at a final concentration of 10 μM MK-801 was routinely included as a positive control. MK-801 and test agents were prepared in minimal essential media supplemented with 21 mM d-glucose and 2.2 g/L sodium bicarbonate (MEM). After 30 minutes, media was replaced with MEM alone. Exposure of neurons to test agents was limited to the NMDA treatment period. Twenty-four hours after removal of NMDA, an aliquot of media from each well was removed for assessment of cell injury by determining lactate dehydrogenase (LDH) activity by the method of Wroblewski and LaDue Proc. Soc. […]

[2] = molecular target: PCP recognition sites (PCP receptor), rat whole brain membranes; assay: [^3 H]TCP Radioreceptor Assay (internal screen); assay type: binding, Male Sprague-Dawley rats; settings: for Ki / [^3 H]TCP (internal screen) Percent (%) inhibition @10 μM: [^3 H]TCP approx. 1 nM, room temperature 25 min; for Ki: mean of at least two separate determinations
Experimental: [^3 H]TCP binding to PCP recognition sites was performed as described by Vignon et al. Brain Research 1983, 280, 194-197. Male Sprague-Dawley rats were sacrificed by decapitation, and whole brains were homogenized in 10 volumes (wt/vol) of cold Tris-HCl buffer (50 mM, pH 7.7) using a Brinkmann Polytron (setting 6, 30 sec). The homogenate was centrifuged at 40,000×g for 10 min at 4° C. The supernatant was decanted, and the homogenization and centrifugation steps were repeated twice as described above. Following this, the pellet was resuspended in Tris-HCl (5 mM, pH 7.7) at a tissue concentration of 0.5-0.75 g/ml, and one ml aliquots were frozen at -70° C. until use. The binding characteristics for PCP recognition sites were not altered by the freezing of membrane suspensions.
On the day of the assay, membrane aliquots were thawed, resuspended in fresh 5 mM Tris-HCl buffer at a tissue concentration of 1 mg/ml, and stored on ice until use. Each assay tube contained 100 μl of [^3 H]TCP at a final concentration of approximately 1 nM, 100 μl of various concentrations of the compounds of interest, 500 μl of the tissue suspension and 300 μl of buffer to a final assay volume of 1 ml and a final protein concentration of 0.5 mg/tube. Non-specific binding was defined by addition of […]. All tubes were incubated at room temperature for 25 min before termination of the reaction by rapid filtration over Whatman GF/B glass fiber filters that had been presoaked in a solution of 0.5% polyethylenimine for at least 1 hr prior to use. Filters were washed with three 4 ml volumes of cold Tris buffer. Following addition of scintillation cocktail, the amount of bound radioactivity was determined by liquid scintillation spectrometry using a Beckman LS 5000TA liquid scintillation counter with an efficiency for tritium of approximately 55%. Inhibition constants (Ki values) were calculated using the EBDA/LIGAND program (McPherson, J. Pharmacol. Meth. 1985, 14, 213-228), purchased from Elsevier/Biosoft, Inc. Results are reported as Ki values which are expressed as the mean of at least two separate determinations, or as a percent (%) inhibition of binding at 10 μM.

[3] = tested on: PCP recognition sites (PCP receptor), whole rat forebrain membranes; assay: [^3 H]TCP Radioreceptor Assay (external screen); assay type: binding; settings: 25° C. for 60 minutes
Experimental: Representative compounds of the invention were also tested in an external [^3 H]TCP radioreceptor assay using the following protocol:
A procedure similar to that described above for the [^3 H]TCP radioreceptor assay (internal screen) was utilized except that the whole rat forebrain membranes were incubated at 25° C. for 60 minutes rather than at room temperature for 25 minutes, before termination of the reaction. The results are reported as a percent (%) inhibition of binding at 10 μM.

Compound	Ki [2] [nM]	other results
C=C(C)C1(C)CC2c3ccccc3C1c1cccc[n+]12 (stereo not shown) [Example 5, 6,11-ethano-12-isopropenyl-12-methyl-6,11dihydrobenzo[b]quinolizinium chloride]	65.2	IC50 [1]: 2810 nM
c1ccc2c(c1)C1CC(C3CC3)(C3CC3)C2c2cccc[n+]21 (stereo not shown) [Example 9, 6.11-ethano-12,12-dicyclopropyl-6,11-dihydrobenzo[b]quinolizinium chloride]	103	
c1ccc2c(c1)C1CC3(C4CC5CC(C4)CC3C5)C2c2cccc[n+]21 (stereo not shown) [15(b), 6,11-ethano-12,12-(2'-spiro-adamantane)-6,11-dihydrobenzo[b]quinolizinium chloride]	5280	
12-isopropylidene-13,13-dimethyl-6,11-ethano-6,11-dihydrobenzo[b]quinolizinium perchlorate (Formula I: R^1 =H; R^2 =R^3 =CH3 ; R^4 and R^5 together =isopropylidene; X^- =ClO4^-) and 12,12-dimethyl-13-isopropylidene-6,11-ethano-6,11-dihydrobenzo[b]quinolizinium perchlorate [Example 16]	265	
CCOCC1(COCC)CC2c3ccccc3C1c1cccc[n+]12 (stereo not shown) [17(b), 12,12-diethoxymethyl-6,11-ethano-6,11-dihydrobenzo[b]quinolizinium chloride]	353	
C=C(C)C1(C)CC2c3ccccc3C1c1cccc[n+]12.[O-][Cl+3]([O-])([O-])[O-] (stereo not shown) [Example 20, 6,11-ethano-12-isopropenyl-12-methyl-6,11-dihydrobenzo[b]quinolizinium perchlorate]	45.7	[^3 H]TCP (external screen) Percent inhibition (%) @10 μM [3]: 94%; binding to the PCP receptor (in words) [2]: found to bind to the PCP receptor
C#CC1(C#C)CC2c3ccccc3C1c1cccc[n+]12 (stereo not shown) [18(b), 12,12-diethynyl-6,11-ethano-6,11-dihydrobenzo[b]quinolizinium hexafluorophosphate]	883	
CC(C)=CC1C2c3ccccc3C([n+]3ccccc32)C1(C)C (stereo not shown) [Example 14, 6,11-ethano-12-(2,2-dimethyl)ethylene-13,13-dimethyl-6,11-dihydrobenzo[b]quinolizinium hexafluorophosphate]	3540	
C=CC1CC2c3ccccc3C1c1cccc[n+]12 (single isomer, unassigned) [Example 13(a), 6,11-ethano-12-ethylene-6,11-dihydrobenzo[b]quinolizinium bromide]		[^3 H]TCP (internal screen) Percent (%) inhibition @10 μM [2]: 49%
CC(C)(C)C1C2c3ccccc3C(C1C(C)(C)C)[n+]1ccccc12.F[P-](F)(F)(F)(F)F (single isomer, unassigned) [Example 6, 6,11-ethano-12-tert-butyl13-tert-butyl-6,11-dihydrobenzo[b]quinolizinium hexafluorophosphate]		[^3 H]TCP (internal screen) Percent (%) inhibition @10 μM [2]: 44%
C=C(C)C1(C)CC2c3ccccc3C1c1cccc[n+]12 (stereo not shown) [Example 3, 6,11-ethano-12-isopropenyl-12-methyl-6,11-dihydrobenzo[b]quinolizinium bromide]	191	IC50 [1]: 5880 nM
CC(C)(C)C1C2c3ccccc3C(C1C(C)(C)C)[n+]1ccccc12 (single isomer, unassigned) [Example 7, 6,11-ethano-12-tert-butyl-13-tert-butyl-6,11-dihydrobenzo[b]quinolizinium hexafluorophosphate]	5090	
[O-][Cl+3]([O-])([O-])[O-].c1ccc2c(c1)C1CC(C3CC3)(C3CC3)C2c2cccc[n+]21 (stereo not shown) [Example 8, 6,11-ethano-12,12-dicyclopropyl-6,11-dihydrobenzo[b]-quinolizinium perchlorate]	88.1	
C=C(C)C1(C)CC2(C)c3ccccc3C1c1cccc[n+]12.[O-][Cl+3]([O-])([O-])[O-] (stereo not shown) [Example 12, 6,11-ethano-6-methyl-12-isopropenyl-12-methyl-6,11-dihydrobenzo[b]quinolizinium perchlorate]	69	
C=C(C)C1(COC)CC2c3ccccc3C1c1cccc[n+]12.[O-][Cl+3]([O-])([O-])[O-] (single isomer, unassigned) [Example 4, 6,11-ethano-12-isopropenyl-12-methoxymethyl-6,11-dihydrobenzo[b]quinolizinium perchlorate]	313	
CC1(C)C2c3ccccc3C([n+]3ccccc32)C1(C)C.[O-][Cl+3]([O-])([O-])[O-] (stereo not shown) [Example 1, 6,11-ethano-12, 12, 13,13-tetramethyl-6,11-dihydrobenzo[b]quinolizinium perchlorate]	21.2	
c1ccc2c(c1)C1CC3(CCC3)C2c2cccc[n+]21 (stereo not shown) [10(b), 6,11-ethano-12,12-(1'-spirocyclobutane)-6,11-dihydrobenzo[b]-quinoliziniumchloride]	3110	
CC(C)C1(C(C)C)CC2c3ccccc3C1c1cccc[n+]12 (stereo not shown) [Example 19, 12,12-diisopropyl-6,11-dihydrobenzo[b]quinolizium hexafluorophosphate]	6010	
C=C(C)C1(C)CC2c3ccccc3C1c1cccc[n+]12 (single isomer, unassigned) [Example 2, 6,11-ethano-12-isopropenyl-12-methyl-6,11-dihydrobenzo[b]quinolizinium bromide]	208	IC50 ([1]; Mus musculus, Cortical neurone): 7300 nM
OCC1(CO)CC2c3ccccc3C1c1cccc[n+]12 (stereo not shown) [11(b), 6,11-ethano-12,12-dihydroxymethyl-6,11-dihydrobenzo[b]quinolizinium chloride]	1950	
